In patent publication US10231965B2, “Molecules for administration to ROS1 mutant cancer cells” (Ignyta, Inc., priority 2014, dated 2019):
“Also recorded” adds a separate entry of the source.

How the values were obtained:
Neuroblastoma (NB) = experiment: Dose escalation study: tumor response by RECIST, neuroblastoma patient; format: in vivo, human; conditions: person, metastatic NB, ALK mutation, Schedule A
Protocol: (§1) A dose escalation study of N-[5-(3,5-difluorobenzyl)-1H-indazol-3-yl]-4-(4-methyl-piperazin-1-yl)-2-(tetrahydro-2H-pyran-4-ylamino) benzamide was conducted in human patients with advanced solid tumors. N-[5-(3,5-difluorobenzyl)-1H-indazol-3-yl]-4-(4-methyl-piperazin-1-yl)-2-(tetrahydro-2H-pyran-4-ylamino) benzamide was dosed orally once/day in a 4 day on, 3 day off schedule for 3 weeks, followed by a 7 day rest period, in continuous 28-day cycles (Schedule A); once/day in continuous 28-day cycles (Schedule B); and once/day in a 4 day on, 3 day off schedule without interruption in continuous 28-day cycles (Schedule C). A minimum of 3 patients were enrolled at each dose level. Endpoints include safety, PK, and tumor response by response evaluation criteria in solid tumors (RECIST).
(§2) Schedule A evaluated ascending oral doses of N-[5-(3,5-difluorobenzyl)-1H-indazol-3-yl]-4-(4-methyl-piperazin-1-yl)-2-(tetrahydro-2H-pyran-4-ylamino) benzamide once daily (fasted state) in a 4-day on, 3-day off schedule for 3 weeks, followed by a 7-day rest period, in continuous 28-day cycles. Dose escalation was conducted according to the standard ‘3+3’ scheme.
Schedule B evaluated ascending oral doses of N-[5-(3,5-difluorobenzyl)-1H-indazol-3-yl]-4-(4-methyl-piperazin-1-yl)-2-(tetrahydro-2H-pyran-4-ylamino) benzamide once daily (fed state) without rest, in continuous 28-day cycles. […]

[1] = tested on: Non-Small Cell Lung Cancer (NSCLC); experiment: Dose escalation study: tumor response by RECIST, NSCLC patients; format: in vivo, human
Protocol: as §1, §2
(§3) Schedule B evaluated ascending oral doses of N-[5-(3,5-difluorobenzyl)-1H-indazol-3-yl]-4-(4-methyl-piperazin-1-yl)-2-(tetrahydro-2H-pyran-4-ylamino) benzamide once daily (fed state) without rest, in continuous 28-day cycles.
(§4) Schedule C evaluated ascending oral doses of N-[5-(3,5-difluorobenzyl)-1H-indazol-3-yl]-4-(4-methyl-piperazin-1-yl)-2-(tetrahydro-2H-pyran-4-ylamino) benzamide once daily (fed state) in a 4-day on, 3-day off schedule for 4 weeks without rest, in continuous 28-day cycles.

[2] = tested on: human patients with advanced solid tumors; experiment: Dose escalation study in human patients with advanced solid tumors: safety, adverse events; format: in vivo
Protocol: as §1, §2, §3, §4

advanced solid tumors = experiment: Dose escalation study: tumor response by RECIST, all patients; format: in vivo, human
Protocol: as §1, §2, §3, §4

Colorectal Cancer (CRC) = experiment: Dose escalation study: tumor response by RECIST, CRC patient; format: in vivo, human; conditions: person, metastatic CRC, TrkA rearrangement, 1600 mg/m^2, Schedule A
Protocol: as §1, §2, §3, §4

[3] = Dose escalation study in human patients with advanced solid tumors: PK; format: in vivo
Protocol: as §1, §2, §3, §4

For CN1CCN(c2ccc(C(=O)Nc3n[nH]c4ccc(Cc5cc(F)cc(F)c5)cc34)c(NC3CCOCC3)c2)CC1 [N-[5-(3,5-difluorobenzyl)-1H-indazol-3-yl]-4-(4-methyl-piperazin-1-yl)-2-(tetrahydro-2H-pyran-4-ylamino) benzamide], the “cycles until response achieved” value (Neuroblastoma (NB); 200 to 1200 mg/m^2/day) was 12 cycles, the tumor response (Neuroblastoma (NB); started at 200 mg/m^2/day, escalated to 1200 mg/m^2/day) was “partial response” and the tumor response ([1]; person one, ROS1 rearrangement, s/p 3 cycles of chemotherapy, 400 mg/m2/day, Schedule C) was “partial response”. For the same compound, the “cycles until response achieved” value ([1]; person one, ROS1 rearrangement, 400 mg/m2/day, Schedule C) was 1 cycle, the tumor response ([1]; person two, ROS1 rearrangement, s/p 2 cycles of chemotherapy, 400 mg/m2/day, Schedule C) was “complete response” and the “cycles until response achieved” value ([1]; person two, ROS1 rearrangement, 400 mg/m2/day, Schedule C) was 2 cycles. For the same compound, the “cycles until response achieved” value ([1]; person, ALK rearrangement, 1200 mg/m2/day, Schedule A) was 4 cycles, the tumor response ([1]; person, CNS metastases, ROS1 rearrangement, s/p chemotherapy, erlotinib, 1200 mg/m^2/day, Schedule A) was “partial response” and the “cycles until response achieved” value ([1]; person, CNS metastases, ROS1 rearrangement, 1200 mg/m^2/day, Schedule A) was 2 cycles. The tumor response ([1]; person, metastatic adenocarcinoma, ALK rearrangement, s/p chemotherapy, crizotinib, 1200 mg/m2/day, Schedule A) was “partial response”, the “Abdominal pain G1 (%)” value ([2]; 25 patients, all schedules) was 16% and the “Abdominal pain G1, number of patients” value ([2]; 25 patients, all schedules) was 4. For the same compound, the “Abdominal pain G2 (%)” value ([2]; 25 patients, all schedules) was 8%, the “Abdominal pain G2, number of patients” value ([2]; 25 patients, all schedules) was 2 and the “Abdominal pain Total (%)” value ([2]; 25 patients, all schedules) was 24%. For the same compound, the “Abdominal pain Total, number of patients” value ([2]; 25 patients, all schedules) was 6, the “Arthralgia G1 (%)” value ([2]; 25 patients, all schedules) was 12% and the “Arthralgia G1, number of patients” value ([2]; 25 patients, all schedules) was 3. The “Arthralgia G2 (%)” value ([2]; 25 patients, all schedules) was 12%, the “Arthralgia G2, number of patients” value ([2]; 25 patients, all schedules) was 3 and the “Arthralgia Total (%)” value ([2]; 25 patients, all schedules) was 24%. For the same compound, the “Arthralgia Total, number of patients” value ([2]; 25 patients, all schedules) was 6, the “Asthenia G1 (%)” value ([2]; 25 patients, all schedules) was 36% and the “Asthenia G1, number of patients” value ([2]; 25 patients, all schedules) was 9. For the same compound, the “Asthenia G2 (%)” value ([2]; 25 patients, all schedules) was 12%, the “Asthenia G2, number of patients” value ([2]; 25 patients, all schedules) was 3 and the “Asthenia Total (%)” value ([2]; 25 patients, all schedules) was 52%. For the same compound, the “Asthenia Total, number of patients” value ([2]; 25 patients, all schedules) was 13, the “Back Pain G1 (%)” value ([2]; 25 patients, all schedules) was 20% and the “Back Pain G1, number of patients” value ([2]; 25 patients, all schedules) was 5. The “Back Pain G2 (%)” value ([2]; 25 patients, all schedules) was 4%, the “Back Pain G2, number of patients” value ([2]; 25 patients, all schedules) was 1 and the “Back Pain Total (%)” value ([2]; 25 patients, all schedules) was 24%. For the same compound, the “Back Pain Total, number of patients” value ([2]; 25 patients, all schedules) was 6, the “Cough G1 (%)” value ([2]; 25 patients, all schedules) was 16% and the “Cough G1, number of patients” value ([2]; 25 patients, all schedules) was 4. For the same compound, the “Cough G2 (%)” value ([2]; 25 patients, all schedules) was 4%, the “Cough G2, number of patients” value ([2]; 25 patients, all schedules) was 1 and the “Cough Total (%)” value ([2]; 25 patients, all schedules) was 20%. The “Cough Total, number of patients” value ([2]; 25 patients, all schedules) was 5, the “Diarrhea G1 (%)” value ([2]; 25 patients, all schedules) was 24% and the “Diarrhea G1, number of patients” value ([2]; 25 patients, all schedules) was 6. For the same compound, the “Diarrhea G2 (%)” value ([2]; 25 patients, all schedules) was 8%, the “Diarrhea G2, number of patients” value ([2]; 25 patients, all schedules) was 2 and the “Diarrhea Total (%)” value ([2]; 25 patients, all schedules) was 32%. For the same compound, the “Diarrhea Total, number of patients” value ([2]; 25 patients, all schedules) was 8, the “Dysgeusia G1 (%)” value ([2]; 25 patients, all schedules) was 24% and the “Dysgeusia G1, number of patients” value ([2]; 25 patients, all schedules) was 6. The “Dysgeusia G2 (%)” value ([2]; 25 patients, all schedules) was 0 (0) %, the “Dysgeusia G2, number of patients” value ([2]; 25 patients, all schedules) was 0 (0) and the “Dysgeusia Total (%)” value ([2]; 25 patients, all schedules) was 24%. The “Dysgeusia Total, number of patients” value ([2]; 25 patients, all schedules) was 6, the “Dyspnea G1 (%)” value ([2]; 25 patients, all schedules) was 12% and the “Dyspnea G1, number of patients” value ([2]; 25 patients, all schedules) was 3. For the same compound, the “Dyspnea G2 (%)” value ([2]; 25 patients, all schedules) was 4%, the “Dyspnea G2, number of patients” value ([2]; 25 patients, all schedules) was 1 and the “Dyspnea Total (%)” value ([2]; 25 patients, all schedules) was 24%. For the same compound, the “Dyspnea Total, number of patients” value ([2]; 25 patients, all schedules) was 6, the “Headache G1 (%)” value ([2]; 25 patients, all schedules) was 24% and the “Headache G1, number of patients” value ([2]; 25 patients, all schedules) was 6. The “Headache G2 (%)” value ([2]; 25 patients, all schedules) was 0 (0) %, the “Headache G2, number of patients” value ([2]; 25 patients, all schedules) was 0 (0) and the “Headache Total (%)” value ([2]; 25 patients, all schedules) was 24%. For the same compound, the “Headache Total, number of patients” value ([2]; 25 patients, all schedules) was 6, the “Myalgia G1 (%)” value ([2]; 25 patients, all schedules) was 24% and the “Myalgia G1, number of patients” value ([2]; 25 patients, all schedules) was 6. The “Myalgia G2 (%)” value ([2]; 25 patients, all schedules) was 4%, the “Myalgia G2, number of patients” value ([2]; 25 patients, all schedules) was 1 and the “Myalgia Total (%)” value ([2]; 25 patients, all schedules) was 28%. For the same compound, the “Myalgia Total, number of patients” value ([2]; 25 patients, all schedules) was 7, the “Nausea G1 (%)” value ([2]; 25 patients, all schedules) was 56% and the “Nausea G1, number of patients” value ([2]; 25 patients, all schedules) was 14. The “Nausea G2 (%)” value ([2]; 25 patients, all schedules) was 8%, the “Nausea G2, number of patients” value ([2]; 25 patients, all schedules) was 2 and the “Nausea Total (%)” value ([2]; 25 patients, all schedules) was 64%. The “Nausea Total, number of patients” value ([2]; 25 patients, all schedules) was 16, the “Paresthesia G1 (%)” value ([2]; 25 patients, all schedules) was 60% and the “Paresthesia G1, number of patients” value ([2]; 25 patients, all schedules) was 15. The “Paresthesia G2 (%)” value ([2]; 25 patients, all schedules) was 0 (0) %, the “Paresthesia G2, number of patients” value ([2]; 25 patients, all schedules) was 0 (0) and the “Paresthesia Total (%)” value ([2]; 25 patients, all schedules) was 60%. The “Paresthesia Total, number of patients” value ([2]; 25 patients, all schedules) was 15, the “Pyrexia G1 (%)” value ([2]; 25 patients, all schedules) was 24% and the “Pyrexia G1, number of patients” value ([2]; 25 patients, all schedules) was 6. The “Pyrexia G2 (%)” value ([2]; 25 patients, all schedules) was 0 (0) %, the “Pyrexia G2, number of patients” value ([2]; 25 patients, all schedules) was 0 (0) and the “Pyrexia Total (%)” value ([2]; 25 patients, all schedules) was 24%. For the same compound, the “Pyrexia Total, number of patients” value ([2]; 25 patients, all schedules) was 6, the “Vomiting G1 (%)” value ([2]; 25 patients, all schedules) was 28% and the “Vomiting G1, number of patients” value ([2]; 25 patients, all schedules) was 7. For the same compound, the “Vomiting G2 (%)” value ([2]; 25 patients, all schedules) was 8%, the “Vomiting G2, number of patients” value ([2]; 25 patients, all schedules) was 2 and the “Vomiting Total (%)” value ([2]; 25 patients, all schedules) was 36%. The “Vomiting Total, number of patients” value ([2]; 25 patients, all schedules) was 9, the “possibly drug-related Grade >3 AE observed (asthenia), number” value ([2]; Grade 3 in one patient, 1200 mg/m^2, Schedule A, subsided with dose reduction to 800 mg/m^2/day) was 1 and the “severity of AEs” value ([2]; all dosing schedules tested) was “Most AEs<Grade 2”. The tolerability ([2]; all dosing schedules tested, intermittent and daily continuous) was “well tolerated in all dosing schedules tested”, the “DLTs, study discontinuations due to AEs, drug-related SAEs” value ([2]; any dosing schedule) was “No drug limiting toxicities, study discontinuations due to adverse events, or drug-related serious adverse events were reported; also recorded: No DLTs, study discontinuations due to AEs, or drug-related SAEs were reported” and the “most common adverse events (mainly grade 1-2) considered possibly treatment-related” value ([2]; human patients, oral) was “nausea, paresthesia, vomiting, diarrhea, asthenia, myalgia, arthralgia, and dysgeusia”. The “possibly treatment-related grade 3 AE of asthenia, number” value ([2]; human patients, oral) was “one”, the “number of partial responses durable >9 cycles” value (advanced solid tumors; 25 patients evaluated) was 3 and the “number of partial responses” value (advanced solid tumors; 25 patients evaluated, NSCLC, CRC and NB with TrkA, ROS1, and ALK molecular alterations) was 5. For the same compound, the complete response (advanced solid tumors; 25 patients evaluated, patient with NSCLC with a ROS1 molecular alteration) was “a complete response”, the “number of patients with prolonged stable disease (11+ cycles)” value (advanced solid tumors; NSCLC and pancreatic adenocarcinoma) was 2 and the tumor response (Colorectal Cancer (CRC); s/p chemotherapy, cetuximab) was “partial response”. For the same compound, the “cycles until response achieved” value (Colorectal Cancer (CRC)) was 1 cycle, the “duration of partial response before progressive disease” value (Colorectal Cancer (CRC)) was 4 cycles and the “exposure at top dose (reason Schedule A was terminated)” value ([3]; Schedule A, 1600 mg/m2/day) was “plateau”. The mean plasma half-life ([3]; human patients, oral once/day, following administration) was 17 to 44 h and the Exposure versus dose ([3]; human patients, oral, dosing Schedule A) was “increased in an approximate dose proportional manner up to doses of 800 mg/m^2”.
